According to paper PMC11672653 (Antibiotics, 2024):

Legend:
[1] = HPLC-MS/MS re-analysis of frozen VCM-spiked human serum (accuracy, stability); conditions: one week, several freeze/thaw cycles
Procedure: The same samples spiked with VCM were frozen and analyzed by HPLC-MS/MS one week later.
Frozen serum samples were thawed prior to analysis and assayed for VCM concentration by ELISA and LC-MS/MS in parallel. The procedure and sample preparation for LC-MS/MS analysis are detailed in the Supplementary File.
An aliquot (10 μL) of the analyte working solution and an aliquot (10 μL) of the IS working solution (1000 ng/ml) were added to an aliquot (100 μL) of serum. After vortexing the sample, 400 μL of cooled (4 °C) water contacting 15% trifluoroacetic acid was added for precipitation, and the sample was mixed well and centrifuged (2750 × g, 15 min, 4 °C). An aliquot (20 μL) of the supernatant was transferred to a test plate containing 230 μL ACN/H2O (10/90) solution for further UPLC-MS/MS analysis (Table S2). Calibration was constructed as a function of VCM concentrations versus corresponding peak area values (Figure S2).
Table S2. Calibration of spiked human serum samples using HPLC-MS/MS (n=4) […]
Figure S2. Calibration of spiked human serum samples using HPLC-MS/MS
Table S3. Recovery from spiked human serum samples using HPLC-MS/MS (N=6) […]
(1 picture or pasted object on this page, not shown here)

[2] = cited from earlier work
[3] = tested on: polyclonal antibodies against ERM (anti-ERM antibody); assay: Competitive indirect ELISA with anti-eremomycin antibody and heterologous VCM coating conjugates; assay type: binding, rabbit; conditions: for IC50: cross-reactivity study, eremomycin antibody-based ELISA for vancomycin (coating BSA-VCM×50f); for CR (cross-reactivity): relative to vancomycin = 100%, eremomycin antibody-based ELISA (coating BSA-VCM×50f)
Procedure: The coating conjugates were adsorbed in 96-well plates from solutions (0.05–1.5 µg/mL) in 0.1 mL CBB. After overnight incubation at 4 °C, the plates were washed three times with PBST to remove unbound reagent. Serial dilutions of antibodies in 0.1 mL 1% BSA-PBST were combined with standard (0, 0.01–10,000 ng/mL) in 0.1 mL PBST and incubated for 1 h at 25 °C. Following the washing procedure, the bound antibody was then detected using the GAR-HRP (1 h, 37 °C) in 0.1 mL of 1% BSA-PBS and subsequently washed out. The enzymatic activity was determined by the addition of TMB substrate (0.1 mL) to the wells, followed by the addition of 0.1 mL of 1 M sulfuric acid 30 min later, which terminated the reaction. The absorbance of the colored reaction product was read at 450 nm using a LisaScan spectrophotometer (Erba Mannheim, Karásek, Czech Republic).
The maximum optical output signal (100%) at zero concentration of VCM was referred to as B0. The decrease in the signal caused by each antibiotic concentration was expressed as the B/B0 ratio and was used to construct standard curves using a four-parameter logistic fitting in GraphPad Prism 8.0 software. The VCM half-inhibitory concentration (IC50) served as the sensitivity value for the comparison of assay variants and the cross-reactivity of analogs.
The checkerboard titration was employed to identify the optimal ratio of coating antigen to antibody, with concentrations taken in a serial fashion.

Compound	IC50 [3]	stability in human serum [1]	recommended Ctrough range [2]	CR (cross-reactivity) [3]	CR (cross-reactivity) ([3]; listed as teicoplanin)
CN[C@H](CC(C)C)C(=O)N[C@H]1C(=O)N[C@@H](CC(N)=O)C(=O)N[C@H]2C(=O)N[C@H]3C(=O)N[C@H](C(=O)N[C@H](C(=O)O)c4cc(O)cc(O)c4-c4cc3ccc4O)[C@H](O)c3ccc(c(Cl)c3)Oc3cc2cc(c3O[C@@H]2O[C@H](CO)[C@@H](O)[C@H](O)[C@H]2O[C@H]2C[C@](C)(N)[C@H](O)[C@H](C)O2)Oc2ccc(cc2Cl)[C@H]1O [Vancomycin]		stability of the analyte in human serum	15 to 20 mg/L		
CC[C@H]1OC(=O)[C@H](C)[C@@H](O[C@H]2C[C@@](C)(OC)[C@@H](O)[C@H](C)O2)[C@H](C)[C@@H](O[C@@H]2O[C@H](C)C[C@H](N(C)C)[C@H]2O)[C@](C)(O)C[C@@H](C)CN(C)[C@H](C)[C@@H](O)[C@]1(C)O [Azithromycin]	>10,000 ng/mL			<0.3%	
NCC[C@H](O)C(=O)N[C@@H]1C[C@H](N)[C@@H](O[C@H]2O[C@H](CN)[C@@H](O)[C@H](O)[C@H]2O)[C@H](O)[C@H]1O[C@H]1O[C@H](CO)[C@@H](O)[C@H](N)[C@H]1O [Amikacin]	>10,000 ng/mL			<0.3%	
CNC(C)C1CCC(N)C(OC2C(N)CC(N)C(OC3OCC(C)(O)C(NC)C3O)C2O)O1 (centres unmarked) [Gentamicin]	>10,000 ng/mL			<0.3%	
Eremomycin	33.0 ng/mL			104%	
Colistin	>10,000 ng/mL			<0.3%	

The next lines start with results.

IC50 [3]	Compound	stability in human serum [1]	recommended Ctrough range [2]	CR (cross-reactivity) [3]	CR (cross-reactivity) ([3]; listed as teicoplanin)
>10,000 ng/mL	Polymyxin B			<0.3%	
>10,000 ng/mL	C[C@@H](O)[C@H]1C(=O)N2C(C(=O)O)=C(S[C@@H]3CN[C@H](C(=O)N(C)C)C3)[C@H](C)[C@H]12 [Meropenem]			<0.3%	
>10,000 ng/mL	Teicoplanin			<0.3%	< 0.3%
>10,000 ng/mL	CC(=O)NC[C@H]1CN(c2ccc(N3CCOCC3)c(F)c2)C(=O)O1 [Linezolid]			<0.3%	
>10,000 ng/mL	CN(C)c1cc(NC(=O)CNC(C)(C)C)c(O)c2c1C[C@H]1C[C@H]3[C@H](N(C)C)C(O)=C(C(N)=O)C(=O)[C@@]3(O)C(O)=C1C2=O [Tigecycline]			<0.3%	
